The values below are quoted from earlier work in patent publication US20240050408A1, “USE OF MGLUR5 ANTAGONISTS FOR TREATING AMPHETAMINE ADDICTION” (NOVARTIS AG, priority 2020, published 2024).

Series [1] relates to methamphetamine conditioned place preference. To be noted: rats; Herrold et al. 2013; cited from earlier work.
For series [2], the system named is methamphetamine self-administration behavior. To be noted: rat model; Gass et al. 2009; cited from earlier work.

`Cc1cccc(C#Cc2ccccc2)n1` [MPEP, 2-Methyl-6-(phenylethynyl)-pyridine]: the “maintenance of the expression of methamphetamine conditioned place preference” value in series [1] was “inhibited”.

Consider `Cc1nc(C#Cc2cccnc2)cs1` [MTEP, 3-[(2-methyl-1,3-thiazol-4-yl)ethynyl]pyridine], for which the “maintenance of the expression of methamphetamine conditioned place preference” value in series [1] was “inhibited”. In series [2], the “cue- and drug-induced reinstatement of methamphetamine-seeking behavior” value is on record as “dose dependently prevented”; the “cue-induced reinstatement of food-seeking behavior” value was “did not alter”; the methamphetamine self-administration behavior result is given as “dose dependently reduced”; the “overall responding for food” value is given as “without altering”.
